Drawing on patent US20190134005A1 (BioMarin Pharmaceutical Inc., priority 2016, published 2019), this text covers IC50 for 35 molecules.

Like-named read-outs stand apart in the source and are kept apart here.

The assay has as its target T1, human CGT (Homo sapiens, UniProt Q16880).
T1 sequence (Q16880 21-541): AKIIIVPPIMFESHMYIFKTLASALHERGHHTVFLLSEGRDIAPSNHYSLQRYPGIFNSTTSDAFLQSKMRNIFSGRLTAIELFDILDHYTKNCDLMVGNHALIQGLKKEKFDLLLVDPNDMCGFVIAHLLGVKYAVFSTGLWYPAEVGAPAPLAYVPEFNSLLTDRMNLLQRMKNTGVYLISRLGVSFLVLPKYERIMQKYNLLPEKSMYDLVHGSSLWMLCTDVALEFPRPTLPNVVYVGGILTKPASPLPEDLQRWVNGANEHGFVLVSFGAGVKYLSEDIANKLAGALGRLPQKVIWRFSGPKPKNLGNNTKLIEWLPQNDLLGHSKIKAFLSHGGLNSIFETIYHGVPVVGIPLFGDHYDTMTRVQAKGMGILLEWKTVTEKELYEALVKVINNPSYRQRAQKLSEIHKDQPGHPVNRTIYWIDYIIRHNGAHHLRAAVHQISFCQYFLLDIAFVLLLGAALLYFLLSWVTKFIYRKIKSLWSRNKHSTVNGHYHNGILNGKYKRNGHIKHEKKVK
Put plainly: Assay 1: CGT Enzymatic Assay (RapidFire/MS/MS, 0.01% Tween 80). The class given is biochemical. The settings on record: Table 1, Compounds of Formula (I) and Formula (II), CGT enzymatic assay, read-out: IC50.

The mark [1] stands for this setting: C6-NBD-dihydro-galactosylceramide readout.

Usually IC50 stands for the concentration needed to halve the response being measured. With `CCC1(O)[C@H](c2ccccc2)N(c2ccc(Br)cc2)C(=O)N1c1ccc(Br)cc1` (some centres unmarked) [Example 45-1], the IC50 is below 1 µM. On the same count and under the same terms, the same measure for `O=C1N(c2ccc(Cl)cc2)[C@@H](C2CC2)C(O)(c2cccc(OC(F)F)c2)N1c1ccc(Cl)cc1` (stereo partly drawn) [Compound 233-1, (5S)-1,3-bis(4-chlorophenyl)-5-cyclopropyl-4-(3-(difluoromethoxy)phenyl)-4-hydroxyimidazolidin-2-one]: below 1 µM; for `C[C@]1(c2cccc(C(F)(F)F)c2)C(O)N(c2ccc(Br)cc2)C(=O)N1c1ccc(Br)cc1` (stereo partly drawn) [Example 219-1, (4S)-1,3-bis(4-bromophenyl)-5-hydroxy-4-methyl-4-(3-(trifluoromethyl)phenyl)imidazolidin-2-one]: 10 to 50 µM. As for `N#Cc1ccc(N2C(=O)N(c3ccc(Br)cc3)C(O)(c3cccc(OC(F)(F)F)c3)C23CCC3)cc1` (centres unmarked) [Compound 292, 4-(7-(4-bromophenyl)-8-hydroxy-6-oxo-8-(3-(trifluoromethoxy)phenyl)-5,7-diazaspiro[3.4]octan-5-yl)benzonitrile], the IC50 under setting [1] was below 1 µM. Regarding `O=C1N(c2ccc(Cl)cc2)[C@@H](c2ccccc2)[C@@](O)(CO)N1c1ccc(Cl)cc1` [Example 218-2, (4R,5S)-1,3-bis(4-chlorophenyl)-4-hydroxy-4-(hydroxymethyl)-5-phenylimidazolidin-2-one], the IC50 was 10 to 50 µM. Still for that read-out and setting: the same measure for `C[C@@H]1N(c2ccccc2)C(=O)N(c2ccccc2)C1(O)c1cccc(OC(F)(F)F)c1` (stereo partly drawn) [Example 230-1, (5S)-4-hydroxy-5-methyl-1,3-diphenyl-4-(3-(trifluoromethoxy)phenyl)imidazolidin-2-one]: 1 to 10 µM.

With `O=C1N(c2ccc(F)cc2)C(=O)C(O)(c2ccccc2)N1c1ccc(F)cc1` (centres unmarked) [Example 161, 1,3-bis(4-fluorophenyl)-5-hydroxy-5-phenylimidazolidine-2,4-dione], the IC50 is above 50 µM. For `N#Cc1ccc(N2C(=O)N(c3ccc(C#N)cc3)C(O)(c3cccc(OC(F)(F)F)c3)C23CCC3)cc1` (centres unmarked) [Compound 293, 4,4′-(8-hydroxy-6-oxo-8-(3-(trifluoromethoxy)phenyl)-5,7-diazaspiro[3.4]octane-5,7-diyl)dibenzonitrile], the IC50 under setting [1] was below 1 µM. Same read-out and setting: for `COC[C@]1(C)N(c2ccc(Cl)cc2)C(=O)N(c2ccc(Cl)cc2)[C@]1(O)c1cccc(OC(F)(F)F)c1` [Compound 296-2, (4S,5S)-1,3-bis(4-chlorophenyl)-4-hydroxy-5-(methoxymethyl)-5-methyl-4-(3-(trifluoromethoxy)phenyl)imidazolidin-2-one] the value was below 1 µM.

Turning to `O=C1N(c2ccc(Cl)c(Cl)c2)CC(O)(c2ccccc2)N1c1ccc(Cl)c(Cl)c1` (centres unmarked) [Example 32, 1,3-bis(3,4-dichlorophenyl)-4-hydroxy-4-phenylimidazolidin-2-one], the IC50 was in the range of 1 to 10 µM.

As for `CC[C@H]1N(c2ccc(Cl)cc2)C(=O)N(c2ccc(Cl)cc2)C1(O)c1cccc(Cl)c1` (stereo partly drawn) [Compound 81-2, (5R)-4-(3-chlorophenyl)-1,3-bis(4-chlorophenyl)-5-ethyl-4-hydroxyimidazolidin-2-one], the IC50 was below 1 µM. Take `CC[C@H]1N(c2ccc(F)cc2)C(=O)N(c2ccc(F)cc2)C1(O)c1cccc(C#N)c1` (stereo partly drawn) [Compound 123-2, 3-((5R)-5-ethyl-1,3-bis(4-fluorophenyl)-4-hydroxy-2-oxoimidazolidin-4-yl)benzonitrile]: the IC50 is below 1 µM. The same measure, in the same setting: for `O=C1N(c2ccc(Cl)cc2)[C@H](c2ccccc2)[C@](O)(CO)N1c1ccc(Cl)cc1` [Example 218-1, (4S,5R)-1,3-bis(4-chlorophenyl)-4-hydroxy-4-(hydroxymethyl)-5-phenylimidazolidin-2-one] the value was 10 to 50 µM; for `CCc1ccc(N2C(=O)N(c3ccc(CC)cc3)C(O)(c3cccc(C#N)c3)C2C)cc1` (centres unmarked) [Compound 104, 3-(1,3-bis(4-ethylphenyl)-4-hydroxy-5-methyl-2-oxoimidazolidin-4-yl)benzonitrile], below 1 µM. Same read-out and setting: the same measure for `CCC[C@@H]1N(c2ccc(Br)cc2)C(=O)N(c2ccc(Br)cc2)C1(O)c1cccc(Cl)c1` (stereo partly drawn) [Compound 119-1, (5S)-1,3-bis(4-bromophenyl)-4-(3-chlorophenyl)-4-hydroxy-5-propylimidazolidin-2-one]: below 1 µM. Same read-out and setting: the same measure for `Cc1c(-c2ccccc2)n(-c2ccc(Br)cc2)c(=O)n1-c1ccc(Br)cc1` [Compound 257, 1,3-bis(4-bromophenyl)-4-methyl-5-phenyl-1,3-dihydro-2H-imidazol-2-one]: below 1 µM; for `O=C1N(c2ccc(Br)cc2)CC(O)(c2cccs2)N1c1ccc(Br)cc1` (centres unmarked) [Example 7, 1,3-bis(4-bromophenyl)-4-hydroxy-4-(thiophen-2-yl)imidazolidin-2-one]: 1 to 10 µM; for `CC[C@@H]1N(c2ccc(Br)cc2)C(=O)N(c2ccc(Br)cc2)C1(O)c1cccc(C(F)(F)F)c1` (stereo partly drawn) [Compound 67-1, (5S)-1,3-bis(4-bromophenyl)-5-ethyl-4-hydroxy-4-(3-(trifluoromethyl)phenyl)imidazolidin-2-one]: below 1 µM. As for `N#Cc1cccc(C2(O)C(C3CCC3)N(c3ccc(Cl)cc3)C(=O)N2c2ccc(Cl)cc2)c1` (centres unmarked) [Example 194, 3-(1,3-bis(4-chlorophenyl)-5-cyclobutyl-4-hydroxy-2-oxoimidazolidin-4-yl)benzonitrile], the IC50 is below 1 µM. On to `COC[C@@]1(C)N(c2ccc(Cl)cc2)C(=O)N(c2ccc(Cl)cc2)C1(O)c1cccc(C#N)c1` (single isomer, unassigned) [Compound 297-1], for which, under setting [1], the IC50 was below 1 µM. Regarding `CC(C)C1N(c2ccc(C(F)(F)F)cc2)C(=O)N(c2ccc(C(F)(F)F)cc2)C1(O)c1cccc(OC(F)(F)F)c1` (centres unmarked) [Example 196, 4-hydroxy-5-isopropyl-4-(3-(trifluoromethoxy)phenyl)-1,3-bis(4-(trifluoromethyl)phenyl)imidazolidin-2-one], the IC50 was below 1 µM. Same read-out and setting: for `C[C@@H]1N(c2ccc(Cl)cc2)C(=O)N(c2ccc(Cl)cc2)C1(O)c1cccc(Cl)c1` (single isomer, unassigned) [Compound 62-1] the value was below 1 µM; for `COc1ccc(N2C(=O)N(c3ccc(OC)cc3)C(O)(c3cccc(OC(F)(F)F)c3)C2(C)C)cc1` (centres unmarked) [Compound 241, 4-hydroxy-1,3-bis(4-methoxyphenyl)-5,5-dimethyl-4-(3-(trifluoromethoxy)phenyl)imidazolidin-2-one], below 1 µM. With `CCC[C@]1(C)N(c2ccc(C#N)cc2)C(=O)N(c2ccc(C#N)cc2)C1(O)c1cccc(OC(F)(F)F)c1` (stereo partly drawn) [Example 320-2, 4,4′-((5S)-4-hydroxy-5-methyl-2-oxo-5-propyl-4-(3-(trifluoromethoxy)phenyl)imidazolidine-1,3-diyl)dibenzonitrile], the IC50 under setting [1] is below 1 µM.

For the molecule `CCc1ccc(N2C(=O)N(c3ccc(CC)cc3)C(O)(c3cccc(C#N)c3)[C@@H]2C)cc1` (single isomer, unassigned) [Compound 104-1], the IC50 was 10 to 50 µM.

`Cc1cccc(C2(O)C(C)N(c3ccc(Cl)cc3)C(=O)N2c2ccc(Cl)cc2)c1` (centres unmarked) [Example 36]: the IC50 was below 1 µM. Same read-out and setting: for `CC(C)c1c(-c2cccc(C#N)c2)n(-c2ccc(Cl)cc2)c(=O)n1-c1ccc(Cl)cc1` [Example 44, 3-(1,3-bis(4-chlorophenyl)-5-isopropyl-2-oxo-2,3-dihydro-1H-imidazol-4-yl)benzonitrile] the value was below 1 µM.

For the molecule `CCC1(O)CN(c2ccc(Cl)cc2)C(=O)N1c1ccc(Cl)cc1` (centres unmarked) [Example 56, 1,3-bis(4-chlorophenyl)-4-ethyl-4-hydroxyimidazolidin-2-one], the IC50 was above 50 µM. Take `N#Cc1cc(Cl)cc(-c2cn(-c3ccc(Cl)cc3)c(=O)n2-c2ccc(Cl)cc2)c1` [Compound 265, 3-(1,3-bis(4-chlorophenyl)-2-oxo-2,3-dihydro-1H-imidazol-4-yl)-5-chlorobenzonitrile]: the IC50 was above 50 µM. Same read-out and setting: the same measure for `CC(C)c1cccc(C2(O)CN(c3ccc(Br)cc3)C(=O)N2c2ccc(Br)cc2)c1` (centres unmarked) [Compound 59, 1,3-bis(4-bromophenyl)-4-hydroxy-4-(3-isopropylphenyl)imidazolidin-2-one]: 1 to 10 µM; for `C[C@@H]1N(c2ccc(Br)cc2)C(=O)N(c2ccc(Br)cc2)C1(O)c1cccc(OC(F)(F)F)c1` (stereo partly drawn) [Compound 66-1, (5S)-1,3-bis(4-bromophenyl)-4-hydroxy-5-methyl-4-(3-(trifluoromethoxy)phenyl)imidazolidin-2-one]: below 1 µM. Same read-out and setting: the same measure for `N#Cc1cccc(C2(O)C(CC3CC3)N(c3ccc(Cl)cc3)C(=O)N2c2ccc(Cl)cc2)c1` (centres unmarked) [Compound 132, 3-(1,3-bis(4-chlorophenyl)-5-(cyclopropylmethyl)-4-hydroxy-2-oxoimidazolidin-4-yl)benzonitrile]: below 1 µM; for `CC[C@@H]1N(c2ccc(F)cc2)C(=O)N(c2ccc(F)cc2)C1(O)c1cccc(C(F)(F)F)c1` (single isomer, unassigned) [Compound 139-1]: 1 to 10 µM. The same measure, in the same setting: for `C[C@@H]1N(c2ccc(Br)cc2)C(=O)N(c2ccc(Br)cc2)C1(O)c1ccccc1` (some centres unmarked) [Example 13-1] the value was below 1 µM; for `C[C@]1(c2cccc(Cl)c2)C(O)N(c2ccc(Cl)cc2)C(=O)N1c1ccc(Cl)cc1` (single isomer, unassigned) [Compound 149-1], 1 to 10 µM.
